Data on six compounds can be found in patent US20230233580A1, “USE OF OXYGENATED CHOLESTEROL SULFATES FOR CANCERS AND NON-CANCEROUS TRANSFORMATIONS RELATED TO EPSTEIN-BARR VIRUS” (priority 2020, published 2023).

Some results are limits rather than exact numbers.

The nature of data set [1]: Metabolite profiling of plasma and feces, oral dose. The class given is in vivo, rats. The note with it: oral 75 mg/kg. From the text: Radiolabeled components in plasma and feces extracts were profiled and identified using radio-high performance liquid chromatography (HPLC) and high performance liquid chromatography/mass spectrometry (HPLC/MS) methods.
Data set [2] deals with 3 DNMTs and 9 other epigenetic enzymes. Nature of the data set: Enzyme kinetic study of epigenetic enzymes. In kind it is biochemical. To be noted: for effect on enzymatic activities: controls.
A short description of data set [3]: Plasma pharmacokinetics of radioactivity, intravenous dose. In kind it is in vivo, male Sprague Dawley rats. The note with it: single intravenous (bolus) dose 10 mg/kg, rats. From the text: (§1) The objectives of this study were to determine the plasma pharmacokinetics of [4-^14C]-25HC3S-derived radioactivity in male Sprague Dawley rats, determine the routes of elimination and excretion mass balance of [4-^14C]-25HC3S-derived radioactivity in male Sprague Dawley rats, determine the tissue distribution and tissue pharmacokinetics of [4-^14C]-25HC3S-derived radioactivity using quantitative whole body autoradiography methods in male Sprague Dawley and Long Evans rats following a single intravenous (bolus) dose, and to provide plasma, urine, and fecal homogenate samples for metabolite profiling of [4-^14C]-25HC3S-derived radioactivity.
(§2) Nine male Sprague Dawley rats (Group 1) were designated for the pharmacokinetic phase, 3 male Sprague Dawley rats (Group 2) for the excretion mass balance phase, and 7 male Sprague Dawley rats (Group 3) and 9 male Long Evans rats (Group 4) for the tissue distribution phase. All animals received a single intravenous dose of [^14C]-25HC3S at 10 mg/kg and a target radioactivity of 225 pCi/kg. Blood samples were collected from all Group 1 animals at approximately 0.083, 0.25, 0.5, 1, 2, 4, 8, 12, 24, 48, and 72 hours post-dose. Urine and feces were collected from all Group 2 animals periodically through 168 hours post-dose. […] Following blood collection, animals were euthanized by CO2 inhalation and carcasses frozen in a dry ice/hexane bath for processing by quantitative whole body autoradiography. Whole blood, plasma, urine, feces, cage rinse, and cage wash were analyzed for total radioactivity by liquid scintillation counting.

The nature of data set [4]: Excretion mass balance, intravenous dose. The class given is in vivo, male Sprague Dawley rats. The note with it: over 168 hours, intravenous 10 mg/kg, rats.
Source text: as §1
as §2, with “pCi/kg.” for “pCi/kg. Blood samples were collected from all Group 1 animals at approximately 0.083, 0.25, 0.5, 1, 2, 4, 8, 12, 24, 48, and 72 hours post-dose. Urine and feces were collected from all Group 2 animals periodically through 168 hours post-dose.”

A short description of data set [5]: Tissue distribution by quantitative whole body autoradiography, intravenous dose. In kind it is in vivo, male Sprague Dawley rats. To be noted: intravenous 10 mg/kg. How it is done:
as §2, with “All animals received a single intravenous dose of [^14C]-25HC3S at 10 mg/kg and a target radioactivity of 225 pCi/kg.” left out

Data set [6] can be described thus: Tissue distribution by quantitative whole body autoradiography, intravenous dose, pigmented rats. To be noted: intravenous 10 mg/kg. The class given is in vivo, male Long Evans rats.
Source text: as §1
as §2, with “pCi/kg.” for “pCi/kg. Blood samples were collected from all Group 1 animals at approximately 0.083, 0.25, 0.5, 1, 2, 4, 8, 12, 24, 48, and 72 hours post-dose. Urine and feces were collected from all Group 2 animals periodically through 168 hours post-dose.”

Data set [7] can be described thus: Plasma pharmacokinetics of radioactivity, oral dose. The note with it: single oral (gavage) dose 75 mg/kg, rats. In kind it is in vivo.
A short description of data set [8]: Excretion mass balance, oral dose. The class given is in vivo. To be noted: oral (gavage) 75 mg/kg, rats.
Data set [9] can be described thus: Tissue distribution by quantitative whole body autoradiography, oral dose. In kind it is in vivo, male Sprague Dawley rats.
[10] abbreviates: calculated using AUClast, oral 75 mg/kg.

Turning to `C[C@H](CCCC(C)(C)O)[C@H]1CC[C@H]2[C@@H]3CC=C4C[C@@H](O)CC[C@]4(C)[C@H]3CC[C@]12C` [25HC, 25-Hydroxycholesterol, reference compound], the “amount in feces, % of total dose” value in data set [1] (0 to 168 hours post-dose pools) is on record as 1.9 % of total dose. The “relative observed intensity (ROI) in plasma” value in data set [1] (2 hour post-dose plasma) stood at 37%.

For the compound `C[C@@H](CO)CCC[C@@H](C)[C@H]1CC[C@H]2[C@@H]3CC=C4C[C@@H](O)CC[C@]4(C)[C@H]3CC[C@]12C` [27HC, 27-Hydroxycholesterol], in [2], the “effect on other enzymes (than DNMT-1)” value is recorded as “no effect”.

For `CC(C)CCC[C@@H](C)[C@H]1CC[C@H]2[C@@H]3CC=C4C[C@@H](OS(=O)(=O)O)CC[C@]4(C)[C@H]3CC[C@]12C` [Xol3S, 5-cholesten-3β-ol, 3-sulfate], in data set [2], the “effect on enzymatic activities” value was “did not significantly affect”.

For `CC(C)CCC[C@@H](C)[C@H]1CC[C@H]2[C@@H]3CC=C4C[C@@H](O)CC[C@]4(C)[C@H]3CC[C@]12C` [Xol, Cholesterol], in data set [2], the “effect on enzymatic activities” value is listed as “did not significantly affect”.

Turning to `C[C@H](CCCC(C)(C)O)[C@H]1CC[C@H]2[C@@H]3CC=C4[14CH2][C@@H](OS(=O)(=O)O)CC[C@]4(C)[C@H]3CC[C@]12C` [[4-^14C]-25HC3S], the “terminal elimination phase T1/2, plasma” value in [3] (PK phase) was 26.6 h. In addition, in data set [3] (total radioactivity), the “mean plasma C0” value was 25,900 ng-equiv./g and the “plasma AUClast” value is reported as 27,900 h*ng-equiv./g. Further, in data set [4], the “dose recovered in urine, feces, and cage rinse” value is on record as “approximately 100.2%”; the “recovered radioactivity in feces” value worked out at 83.0%. Further, in data set [5] (calculated using AUClast), the “tissue:plasma ratio, liver” value is on record as 11.4 and the “tissue:plasma ratio, small intestine (wall)” value is 7.44. Further, in [5] (Group 3), the “plasma:whole blood AUClast ratio” value was 0.79 and the “whole blood AUClast” value was 25,200 h*ng-equiv./g. Further, in [5] (QWBA phase), the maximum plasma concentration is 12,400 ng-equiv./g. In [5] (derived radioactivity), the “AUClast in the liver” value is listed as ≤ 364,000 h-ng/g. In addition, in [5] (detected in all tissues except the eye (lens)), the “tissue distribution of compound and/or metabolites” value is given as “broadly distributed”. In addition, the “plasma or whole blood concentrations versus Sprague Dawley rats” value in data set [6] (first 168 hours post-dose) is given as “no substantial difference”. The “binding to pigmented or non-pigmented skin or the uveal tract” value in data set [6] is on record as “no difference”. In data set [7], the “plasma AUClast” value is listed as 96,400 h-ng equiv./g and the “terminal elimination phase T1/2” value is 27.3 h. Moreover, in data set [8], the “dose recovered in urine, feces, and cage rinse” value is “approximately 94.5%”; the “recovered radioactivity in feces” value was found to be 94.2%. In data set [9] (setting [10]), the “tissue:plasma ratio, adrenal gland” value was 6.64; the “tissue:plasma ratio, liver” value is given as 6.96; the “tissue:plasma ratio, small intestine (wall)” value was 15.4. Besides, in data set [9] (oral 75 mg/kg), the “Skin, thymus, prostate, and pituitary tissue concentrations” value is recorded as less than 3000 ng equiv./g; the “tissue Tmax” value was no more than 6 hours post-dose. For the same compound, in data set [9] (oral 75 mg/kg, detected in all tissues except the eye (lens)), the “tissue distribution of compound and/or metabolites” value is “broadly distributed”. Moreover, in [9] (oral (gavage) 75 mg/kg), the “plasma:whole blood AUClast ratio” value was 1.12 and the “whole blood AUClast” value is 127,000 h-ng equiv./g.

As for desmosterol sulfate, in [1] (radiolabeled), the “detection in plasma or feces samples” value is listed as “not found”.
